We go through 2 compounds from patent US10785978B2, “Control and repellency of biting flies, house flies, ticks, ants, fleas, biting midges, cockroaches, spiders and stink bugs” (priority 2012, dated 2020).

Assay type in all cases: in vivo
Assay [1] has as its system Brown Dog Ticks, Rhipicephalus sanguineus. In words: Brown Dog tick repellency on vertical filter paper strips. As to conditions: for ticks repelled: concentration not given. As for the experimental part:
Control against Brown Dog ticks was determined in the following protocol. Strips of filter paper, 1″ by 3″, were placed on a sheet of aluminum foil treated with 1 ml each of the test samples and allowed to dry. The end of each treated strip was stapled to an untreated filter paper strip of the same dimensions. The stapled strips were suspended in a vertical position above a tray, with the treated half attached to a horizontal glass rod by a metal clip. The untreated half was lowered when the strip is vertically positioned. Brown Dog Ticks, Rhipicephalus sanguineus, mixed sexes, were purchased from a supplier. Five replicates of five ticks for each treatment regimen plus five additional replicates for the control were employed. Ticks shipped to the test site were given at least one day to acclimate to “shipping stress” before they are used for testing. Those tick specimens which appeared sluggish or moribund were not used. Suitable ticks were removed from their containers and allowed to quest on the free end of the test strip. Once present on the strip they were watched as they crawled up the strip until they contacted the treated paper. If the tick, once in contact with the treated zone, either turned around, stopped without proceeding further, or dropped off, the tick is classified as repelled. If it continued to crawl onto the treated strip, even after it stopped briefly, that tick was classified as not repelled. A maximum observation time of 1 minute per replicate was allowed for ticks to respond after reaching the treated area, but during the test, if more time was needed, the maximum observation time may have been adjusted at the discretion of the study coordinator. At the end of the observation time, the number of ticks repelled was recorded. Tick behavior was recorded when applicable, such as whether increased number of affected or repelled ticks occurred in successive replicates over time. After the completion of each treatment parameter, the testing chamber was ventilated for five minutes by turning on the exhaust fan and opening the door leading into the chamber. Ticks were used only once. Average number of ticks displaying each behavior category were calculated and compared to the control replicates.

Another assay concerns Brown Dog Ticks. In words: Second repellent assay against Brown Dog Ticks. As to conditions: 15% in isopropyl alcohol. As to the method:
Also, a second repellent assay was used to evaluate six test samples against Brown Dog Ticks. Five replicates of five ticks were given the opportunity to quest onto a vertical strip of untreated filter paper and then allowed to move upward toward a second vertical strip of filter paper treated with one of the six candidate repellents or DEET®. In the control situation, the second strip was treated with isopropanol. They were then observed for directional or behavioral changes caused in response to contact with the repellent. Ticks were recorded as either repelled or not repelled. Compounds were diluted in isopropyl alcohol. The percentages of ticks repelled are shown below in Table 6.

The subject of the next assay is Black Widow spiders. As to the kind of experiment: Black Widow spider choice test in half-treated tube shelters. The following applies: 5% in isopropanol; location after 24 hours. As to the method: Control against Black Widow spiders was determined using the following protocol. One test container containing two card stock tube shelters, one half treated with a test sample and the other half treated with isopropanol was prepared. A spider was introduced in the center of the tube. The spider was then given a choice to move to one end of the shelters. The following day, its location is recorded and compared to the results from a shelter containing untreated half-shelters.
On the day of the test one of the two shelters was sprayed with the test sample solution using a 2 oz pump spray bottle. Only the surfaces that the spider will most likely contact were treated. Therefore, only the inside of one of the shelter tubes, including the end disc (spiders will not be able to access the outside part of the shelter) were sprayed. The total amount of product was weighed and recorded. The treated surface was allowed to dry for a minimum of ½ hour, or until solvent could not be detected by smell. At this time the shelter tubes were assembled.
Card stock paper tube shelters were constructed from 2 half-letter sized sheets (5½″×8½″) of paper, rolled and taped together to form a short tube. One end of each was covered with a circle of card stock paper, while the other end was later taped to the open end of the other half sheet, forming one long tube. […] The solvent-treated half was labeled with a “C” on the inner and outer walls with a pencil or a pen with solvent resistant ink. Prior to forming the final tube shelter, a semi-circular hole was cut into one of the margins of each sheet such that, once the two tubes are taped together, the holes correspond to the top and at the junction of the tubes for introduction of the spiders.
Twenty-five arenas were prepared in this manner for each test sample. There were five replicates of five spiders. Twenty-five additional control arenas were also prepared. They were prepared the same way, except that areas to be sprayed were sprayed with isopropanol only.
Replicates of five spiders were selected for each test formulation and for the control. The specimens were visually examined for overall physical condition. […] The spiders were transferred directly into the holding vials using flexible forceps or with a little coaxing with an artist brush. Because of their cannibalistic tendencies, each vial contained only one spider. There they were held until the time for testing.
At the test start the spiders were placed directly in the middle, through the opening at the top of the shelter tube, and the opening covered, with only one spider per arena. […] They were left alone for 24 hours, after which time their location within the arena was recorded. Spiders present inside the shelter treated with the test repellent were considered tolerant.

For assay [2], the system named is brown marmorated stink bugs (BMSB). In words: Brown marmorated stink bug repellency, treated vs. untreated filter paper arena. As for the experimental part: The two semi-circle filter papers were aligned together to completely cover the bottom of the test arena. Control arenas were also set up in a similar fashion except both were treated with acetone. Five replicates of 5 BMSB were then introduced into both the treated and control arenas. By releasing them in the center of the arena, the BMSB were presented with a choice of treated vs. untreated substrate (or untreated vs. untreated in the control arenas). The repellency of the BMSB was recorded at 24 hours post-treatment.

`CCC(C)=CCCC(C)=CCC1CCCC1=O` (centres unmarked) [Methyl apritone, methyl apritone]: the Mean % repelled (in assay [1] (7.5% in isopropyl alcohol); in assay [1] (Neat); in the assay on Brown Dog Ticks) was 100% throughout. This compound also came in with a ticks repelled in assay [1] of 100%. Besides, the “% Repellency” value in the assay with Black Widow spiders is reported as 37.5%.

Regarding `CCCCCC1C(=O)CCC1CC(=O)OC` (centres unmarked) [Methyl dihydrojasmonate, methyl dihydrojasmonate], the Mean % repelled (in assay [1] (Neat); with Brown Dog Ticks) was 100% each time. In addition, in assay [1], the ticks repelled was determined as 100%. In addition, the “% Repellency” value with Black Widow spiders is given as 87.5%. Besides, the figures for the “% Repellency at 24 hours” value in assay [2] (2.5% in isopropyl alcohol) and in assay [2] (5% in isopropyl alcohol) were 74% and 100%, respectively.
